Data published in US9512144B2, “Imidazothiazole sufonamides as nematicides” (BAYER CROPSCIENCE AKTIENGESELLSCHAFT, priority 2013, dated 2016).

What follows are molecules tested on Meloidogyne incognita (assay: Meloidogyne incognita test (MELGIN): sand, salad seeds, gall formation after 14 days). Conditions: application rate 20 ppm, salad seedlings in sand.
Assay type: in vivo
Protocol: Solvent: 125.0 parts by weight of acetone To produce a suitable preparation of active compound, 1 part by weight of active compound is mixed with the stated amount of solvent, and the concentrate is diluted with water to the desired concentration. Vessels are filled with sand, a solution of the active ingredient, a suspension containing eggs and larvae of the southern root-knot nematode (Meloidogyne incognita) and salad seeds. The salad seeds germinate and the seedlings grow. Galls develop in the roots. After 14 days the nematicidal activity is determined on the basis of the percentage of gall formation. 100% means that no galls were found; 0% means that the number of galls found on the roots of the treated plants was equal to that in untreated control plants.

Row | Structure (SMILES) | nematicidal activity on the basis of the percentage of gall formation (100% = no galls)
1 | O=C(NS(=O)(=O)c1cc(Cl)ccc1Cl)c1cn2cc(C(F)(F)F)sc2n1 [Example I-1-6] | 100%
2 | Cc1ccc(OC(F)F)cc1S(=O)(=O)NC(=O)c1cn2cc(C(F)(F)F)sc2n1 [Example I-1-7] | 90%
3 | O=C(NS(=O)(=O)c1c(F)cccc1F)c1cn2cc(C(F)(F)F)sc2n1 [Example I-1-11] | 100%
4 | CC(C)(C)c1cn2cc(C(=O)NS(=O)(=O)c3c(Cl)cccc3Cl)nc2s1 [Example I-1-13] | 100%
5 | Cc1cc(S(=O)(=O)NC(=O)c2cn3cc(C(F)(F)F)sc3n2)c(C)cc1Br [Example I-1-14] | 100%
6 | CC(C)(C)c1cn2cc(C(=O)NS(=O)(=O)c3cc(Cl)ccc3Cl)nc2s1 [Example I-1-15] | 100%
7 | CC(C)(C)c1cn2cc(C(=O)NS(=O)(=O)c3ccccc3Cl)nc2s1 [Example I-1-16] | 100%
8 | O=C(NS(=O)(=O)c1ccccc1Cl)c1cn2cc(Cl)sc2n1 [Example I-1-17] | 100%
9 | O=C(NS(=O)(=O)c1cc(Cl)ccc1Cl)c1cn2cc(Cl)sc2n1 [Example I-1-18] | 90%
10 | COc1ccc(Cl)c(S(=O)(=O)NC(=O)c2cn3cc(Cl)sc3n2)c1 [Example I-1-19] | 100%
11 | O=C(NS(=O)(=O)c1c(F)cccc1F)c1cn2cc(Cl)sc2n1 [Example I-1-20] | 100%
12 | O=C(NS(=O)(=O)c1cc(C(F)(F)F)ccc1Cl)c1cn2cc(Cl)sc2n1 [Example I-1-21] | 100%
13 | Cc1ccc(C)c(S(=O)(=O)NC(=O)c2cn3cc(Cl)sc3n2)c1 [Example I-1-22] | 100%
14 | COc1ccc(Cl)c(S(=O)(=O)NC(=O)c2cn3cc(C(C)(C)C)sc3n2)c1 [Example I-1-23] | 100%
15 | COc1ccc(Cl)c(S(=O)(=O)NC(=O)c2cn3c(C(F)(F)F)csc3n2)c1 [Example I-1-29] | 90%
16 | O=C(NS(=O)(=O)c1cc(Cl)ccc1Cl)c1cn2c(C(F)(F)F)csc2n1 [Example I-1-31] | 100%
17 | O=C(NS(=O)(=O)c1c(Cl)cccc1Cl)c1cn2cc(Cl)sc2n1 [Example I-1-43] | 100%
18 | Cc1cc(S(=O)(=O)NC(=O)c2cn3cc(Cl)sc3n2)c(C)cc1C#N [Example I-1-45] | 100%
19 | O=C(NS(=O)(=O)c1cccc(Cl)c1)c1cn2cc(Cl)sc2n1 [Example I-1-50] | 100%
20 | O=C(NS(=O)(=O)c1ccc(Cl)cc1)c1cn2cc(Cl)sc2n1 [Example I-1-51] | 100%

Row | Structure (SMILES) | nematicidal activity on the basis of the percentage of gall formation (100% = no galls)
21 | COc1ccc(Cl)c(S(=O)(=O)NC(=O)c2cn3cc(Br)sc3n2)c1 [Example I-1-60] | 100%
22 | O=C(NS(=O)(=O)c1cccc(Cl)c1)c1cn2cc(C(F)(F)C(F)(F)F)sc2n1 [Example I-1-143] | 90%
23 | O=C(NS(=O)(=O)c1ccc(Cl)cc1)c1cn2cc(C(F)(F)C(F)(F)F)sc2n1 [Example I-1-144] | 90%
24 | O=C(NS(=O)(=O)c1cc(Cl)ccc1Cl)c1cn2cc(C(F)(F)C(F)(F)F)sc2n1 [Example I-1-145] | 100%
25 | Cc1c(C(F)(F)F)sc2nc(C(=O)NS(=O)(=O)c3cccc(Cl)c3)cn12 [Example I-1-155] | 100%
26 | Cc1c(C(F)(F)F)sc2nc(C(=O)NS(=O)(=O)c3ccc(Cl)cc3)cn12 [Example I-1-156] | 90%
27 | O=C(NS(=O)(=O)c1ccccc1Cl)c1cn2nc(C(F)(F)F)sc2n1 [Example I-1-202] | 90%
28 | O=C(NS(=O)(=O)c1ccccc1F)c1cn2cc(C(F)(F)F)sc2n1 [Example I-1-212] | 100%
29 | O=C(NS(=O)(=O)c1ccc(Cl)cc1Cl)c1cn2cc(C(F)(F)C(F)(F)F)sc2n1 [Example I-1-224] | 100%
30 | Cc1ccc(C(C)(C)C)cc1S(=O)(=O)NC(=O)c1cn2cc(C(F)(F)C(F)(F)F)sc2n1 [Example I-1-233] | 100%
31 | O=C(NS(=O)(=O)c1ccccc1OC(F)(F)F)c1cn2cc(C(F)(F)C(F)(F)F)sc2n1 [Example I-1-234] | 100%
32 | O=C(NS(=O)(=O)c1ccccc1-c1ccccc1)c1cn2cc(C(F)(F)C(F)(F)F)sc2n1 [Example I-1-235] | 100%
33 | O=C(NS(=O)(=O)c1cccc(Cl)c1Cl)c1cn2cc(C(F)(F)C(F)(F)F)sc2n1 [Example I-1-236] | 100%
34 | CCCOc1ccc(Cl)c(S(=O)(=O)NC(=O)c2cn3cc(C(F)(F)C(F)(F)F)sc3n2)c1 [Example I-1-238] | 100%
35 | COc1ccccc1S(=O)(=O)NC(=O)c1cn2cc(C(F)(F)C(F)(F)F)sc2n1 [Example I-1-248] | 100%
36 | Cc1c(C(F)(F)C(F)(F)F)sc2nc(C(=O)NS(=O)(=O)c3cccc(Cl)c3)cn12 [Example I-1-250] | 90%
37 | Cc1ccc(C)c(S(=O)(=O)NC(=O)c2cn3c(C(F)(F)F)csc3n2)c1 [Example I-1-270] | 100%
38 | O=C(NS(=O)(=O)c1cccc(Cl)c1)c1cn2cc(C(F)(F)F)sc2n1 [Example I-1-272] | 90%
39 | O=C(NS(=O)(=O)c1ccc(Br)c(Cn2cccn2)c1)c1cn2cc(C(F)(F)F)sc2n1 [Example I-1-275] | 90%
40 | O=C(NS(=O)(=O)c1ccc(Cl)cc1Cl)c1cn2cc(C(F)(F)F)sc2n1 [Example I-1-279] | 90%

Row | Structure (SMILES) | nematicidal activity on the basis of the percentage of gall formation (100% = no galls)
41 | O=C(NS(=O)(=O)c1ccccc1OC(F)(F)F)c1cn2cc(C(F)(F)F)sc2n1 [Example I-1-281] | 90%
42 | Cc1ccc(Cn2cccn2)cc1S(=O)(=O)NC(=O)c1cn2cc(C(F)(F)F)sc2n1 [Example I-1-288] | 90%
43 | Cc1ccc(Cl)cc1S(=O)(=O)NC(=O)c1cn2c(C)c(C(F)(F)F)sc2n1 [Example I-1-290] | 100%
44 | O=C(NS(=O)(=O)c1cc(Cn2cccn2)ccc1Cl)c1cn2cc(C(F)(F)C(F)(F)F)sc2n1 [Example I-1-292] | 100%
45 | O=C(NS(=O)(=O)c1ccc(Br)c(Cn2cccn2)c1)c1cn2cc(C(F)(F)C(F)(F)F)sc2n1 [Example I-1-293] | 100%
46 | Cc1ccc(Cn2cccn2)cc1S(=O)(=O)NC(=O)c1cn2cc(C(F)(F)C(F)(F)F)sc2n1 [Example I-1-295] | 90%
47 | CSc1cn2cc(C(=O)NS(=O)(=O)c3cc(C(F)(F)F)ccc3Cl)nc2s1 [Example I-1-296] | 100%
48 | CSc1cn2cc(C(=O)NS(=O)(=O)c3cc(Cl)ccc3Cl)nc2s1 [Example I-1-297] | 90%
49 | CSc1cn2cc(C(=O)NS(=O)(=O)c3ccccc3Cl)nc2s1 [Example I-1-298] | 100%
50 | COc1ccc(Cl)c(S(=O)(=O)NC(=O)c2cn3cc(SC)sc3n2)c1 [Example I-1-299] | 90%
51 | CSc1cn2cc(C(=O)NS(=O)(=O)c3c(Cl)cccc3Cl)nc2s1 [Example I-1-300] | 100%
52 | CC(=O)c1ccc(Cl)c(S(=O)(=O)NC(=O)c2cn3cc(C(F)(F)F)sc3n2)c1 [Example I-1-301] | 100%
53 | CC(=O)c1ccc(Cl)c(S(=O)(=O)NC(=O)c2cn3c(C)c(C(F)(F)F)sc3n2)c1 [Example I-1-302] | 100%
54 | CCc1ccc(CC)c(S(=O)(=O)NC(=O)c2cn3cc(C(F)(F)F)sc3n2)c1 [Example I-1-305] | 100%
55 | Cc1c(Cl)ccc(S(=O)(=O)NC(=O)c2cn3cc(C(F)(F)F)sc3n2)c1C [Example I-1-307] | 100%
56 | CSc1ccc(Cl)c(S(=O)(=O)NC(=O)c2cn3cc(C(F)(F)F)sc3n2)c1 [Example I-1-308] | 100%
57 | CCc1ccc(Cl)cc1S(=O)(=O)NC(=O)c1cn2cc(C(F)(F)F)sc2n1 [Example I-1-309] | 100%
58 | N#Cc1ccc(Cl)c(S(=O)(=O)NC(=O)c2cn3cc(C(F)(F)F)sc3n2)c1 [Example I-1-310] | 90%
59 | O=C(NS(=O)(=O)c1cc(Br)ccc1Br)c1cn2cc(C(F)(F)F)sc2n1 [Example I-1-312] | 100%
